Test results reported in US6596726B1, “Tricyclic compounds capable of inhibiting tyrosine kinases of the epidermal growth factor receptor family” (Warner Lambert Company, priority 1994, dated 2003).
Where a name gives a salt, the structure may show the parent alone. Read-outs that look alike come from different tables or passages of the source. Blank lines part the entries; values can stand above or below the compound they belong to.

Assays:
[1] = target: T1, Human EGF receptor tyrosine kinase (Homo sapiens, UniProt P00533); assay: EGF receptor tyrosine kinase inhibition (phosphorylation of PLC-gamma 1 derived peptide); assay type: biochemical
T1 construct: Human EGF receptor tyrosine kinase was isolated from A431 human epidermoid carcinoma cells which overexpress EGF receptor; endogenous in cells; host or cells: A431 human epidermoid carcinoma cells; purified on wheat germ agglutinin sepharose
Method: Purification of Epidermal Growth Factor Receptor Tyrosine Kinase—Human EGF receptor tyrosine kinase was isolated from A431 human epidermoid carcinoma cells which overexpress EGF receptor by the following methods. Cells were grown in roller bottles in 50% Delbuco's Modified Eagle and 50% HAM F-12 nutrient media (Gibco) containing 10% fetal calf serum. Approximately 10^9 cells were lysed in two volumes of buffer containing 20 mM 2-(4N-[2-hydroxyethyl]piperazin-1-yl)ethanesulfonic acid (hepes), pH 7.4, 5 mM ethylene glycol bis(2-aminoethyl ether) N,N,N′,N′-tetraacetic acid, 1% Triton X-100, 10% glycerol, 0.1 mM sodium orthovanadate, 5 mM sodium fluoride, 4 mM pyrophosphate, 4 mM benzamide, 1 mM dithiothreitol, 80 μg/mL aprotinin, 40 μg/mL leupeptin and 1 mM phenylmethylsulfonyl fluoride. After centrifugation at 25,000×g for 10 minutes, the supernatant was equilibrated for 2 h at 4° C. with 10 mL of wheat germ agglutinin sepharose that was previously equilibrated with 50 mM Hepes, 10% glycerol, 0.1% Triton X-100 and 150 mM NaCl, pH 7.5, (equilibration buffer). Contaminating proteins were washed from the resin with 1 M NaCl in equilibration buffer, and the enzyme was eluted with 0.5 M N-acetyl-1-D-glucosamine in equilibration buffer, followed by 1 mM urea. The enzyme was eluted with 0.1 mg/ml EGF.
The reaction was terminated by the addition of 2 mL of 75 mM phosphoric acid and passed through a 2.5 cm phosphocellulose filter disc to bind the peptide. The filter was washed five times with 75 mM phosphoric acid and placed in a vial along with 5 mL of scintillation fluid (Ready gel Beckman).

[2] = system: erbB-2, 3, 4 autophosphorylation in SK-BR-3 breast tumor cells; assay: Inhibition of conditioned media-induced autophosphorylation in SK-BR-3 breast tumor cells; assay type: cell-based, human; settings: SK-BR-3 cells, read-out: SKBR-3 IC50
Method: (§1) Cells were grown to 100% confluency in 100 mm Petrie dishes (Corning). After the cells were treated for 5 minutes with either EGF (epidermal growth factor), PDGF, or bFGF (basic fibroblast growth factor) (20 ng/ml) or 1 ml of conditioned media from MDA-MB-231 cells, the media was removed and the monolayer scraped into 1 ml of ice cold lysis buffer (50 mM Hepes, pH 7.5, 150 mM NaCl, 10% glycerol, 1% triton X-100, 1 mM EDTA, 1 mM EGTA, 10 mM sodium pyrophosphate, 30 mM p-nitrophenyl phosphate, 1 mM orthovanadate, 50 mM sodium fluoride, 1 mM phenylmethylsulfonylfluoride, 10 μg/ml of aprotinin, and 10 μg/ml of leupeptin). The lysate was transferred to a microfuge tube (small centrifuge that holds 1-2 ml plastic centrifuge tubes), allowed to sit on ice 15 minutes and centrifuged 5 minutes at 10,000×g. The supernatant was transferred to a clean microfuge tube and 5 μg of antibody was added to designated samples. The tubes were rotated for 2 hours at 4° C. after which 25 μl of protein A sepharose was added and then rotation continued for at least 2 more hours. The protein A separose was washed 5 times with 50 mM Hepes, pH 7.5, 150 mM NaCl, 10% glycerol and 0.02% sodium azide. The precipitates were resuspended with 30 μl of Laemlli buffer (Laemmli, NATURE, Vol. 727, pp. 680-685, 1970), heated to 100° C. for 5 minutes and centrifuged to obtain the supernatant. Whole cell extracts were made by scraping cells grown in the wells of 6 well plates into 0.2 ml of boiling Laemmli buffer. The extract were transferred to a microfuge tube and heated to 100° C. for 5 minutes. The entire supernatant from the immunoprecipitation or 35 μl of the whole cell extract was loaded onto a polyacrylamide gel (4-20%) and electrophoresis carried out by the method of Laemlli (Laemmli, 1970). Proteins in the gel were electrophoretically transferred to nitrocellulose and the membrane was washed once in 10 mM Tris buffer, pH 7.2, 150 mM NaCl, 0.01% Azide (TNA) and blocked overnight in TNA containing 5% bovine serum albumin and 1% ovalbumin (blocking buffer). The membrane was blotted for 2 hours with the primary antibody (1 μg/ml in blocking buffer) and then washed 2 times sequentially in TNA, TNA containing 0.05% Tween-20 and 0.05% Nonidet P-40 (commercially available detergent) and TNA. The membranes were then incubated for 2 hours in blocking buffer containing 0.1 μCi/ml of [^125I] protein A and then washed again as above. After the blots were dry they were loaded into a film cassette and exposed to X-AR X-ray film for 1-7 days. Protein A is a bacterial protein that specifically bonds certain IgG subtypes and is useful in binding to and isolating antibody-antigen complexes.
(§2) Inhibition of EGF-Induced Autophosphorylation in A431 Epidermoid Carcinoma Cells and Conditioned Media-Induced Autophosphorylation in SK-BR-3 Breast Tumor Cells by Compounds of the Current Invention

[3] = target: T2, EGF receptor autophosphorylation in A431 human epidermoid carcinoma cells (Homo sapiens, UniProt P00533); assay: Inhibition of EGF-induced autophosphorylation in A431 epidermoid carcinoma cells; assay type: cell-based
T2 construct: endogenous in cells; host or cells: A431 human epidermoid carcinoma cells (ATCC)
Method: as §1, with “The precipitates were resuspended with 30 μl of Laemlli buffer (Laemmli, NATURE, Vol. 727, pp. 680-685, 1970), heated to 100° C. for 5 minutes and centrifuged to obtain the supernatant. Whole cell extracts were made by scraping cells grown in the wells of 6 well plates into 0.2 ml of boiling Laemmli buffer.” left out, “The entire supernatant from the immunoprecipitation or 35 μl of the whole cell extract was loaded onto a polyacrylamide gel (4-20%) and electrophoresis carried out by the method of Laemlli (Laemmli, 1970).” left out, “TNA.” for “TNA. The membranes were then incubated for 2 hours in blocking buffer containing 0.1 μCi/ml of [^125I] protein A and then washed again as above. After the blots were dry they were loaded into a film cassette and exposed to X-AR X-ray film for 1-7 days. Protein A is a bacterial protein that specifically bonds certain IgG subtypes and is useful in binding to and isolating antibody-antigen complexes.”
as §2
The numbers to the left of gels indicate the positions of molecular weight standards in kiloDaltons.

[4] = system: B104-1-1 NIH-3T3 mouse fibroblasts transfected by the neu oncogene; assay: Growth inhibition assay (antiproliferative), B104-1-1; assay type: cell-based; settings: 72 h, B104-1-1 cells, 3 days
Source text: Antiproliferative Properties of Tyrosine Kinase Inhibitors IC50 (nM)
B104-1-1—NIH-3T3 mouse fibroblasts transfected by the neu oncogene: Stern et al., Science, 234, pp. 321-324 (1987);

[5] = EGF Receptor Tyrosine Kinase Inhibition, Table 1, values in nM, read-out: IC50 in EGFR
[6] = enzyme value repeated in the autophosphorylation table, read-out: EGFR IC50

IC50 [1, 5]: 460 nM
Compound: c1ccc(CNc2ncnc3c2[nH]c2ccccc23)cc1 [Example 23, 4-Benzylaminoindolo[3,2-d]pyrimidine]

IC50 [1]: 732 nM
Compound: Brc1cccc(Nc2ncnc3c2sc2ncccc23)c1 [Example 21, 4-(3-bromoanilino)pyrido[3′, 2′; 4,5]thieno[3,2-d]pyrimidine]

IC50 [1]: 220 nM
Compound: COc1ccc2[nH]c3ncnc(Nc4cccc(Br)c4)c3c2c1 [Example 31, 4-(3-Bromoanilino)6-methoxyindolo[2,3-d]pyrimidine]

Compound: Brc1cccc(Nc2ncnc3c2[nH]c2ccccc23)c1 [Example 25, 4-(3-Bromoanilino)indolo[3,2-d]pyrimidine hydrochloride]
IC50 [2]: 1000 nM

IC50 [1, 5]: 12.3 nM
Compound: O=[N+]([O-])c1ccc2sc3c(Nc4cccc(Br)c4)ncnc3c2c1 [Example 16, 4-(3-Bromoanilino)-8-nitrobenzo[b]thieno[3,2-d]pyrimidine]

Compound: Brc1cccc(Nc2ncnc3[nH]c4ccccc4c23)c1 [Example 28, 4-(3-Bromoanilino)indolo[2,3-d]pyrimidine hydrochloride]
IC50 [1, 5]: 31 nM
IC50 [1, 6]: 31 nM
IC50 [2]: 10 nM
IC50 [3]: 630 nM

IC50 [1, 5]: 732 nM
IC50 [2]: 1100 nM
IC50 [3]: 109 nM
Compound: Cn1c2ccccc2c2c(Nc3cccc(Br)c3)ncnc21 [Example 29, 4-(3-Bromoanilino)-9,N-methylindolo[2,3-d]pyrimidine.]

IC50 [1, 5]: 1.8 nM
IC50 [1, 6]: 1.8 nM
IC50 [3]: 170 nM
Compound: Brc1cccc(Nc2ncnc3c2sc2ccccc23)c1 [Example 15, 4-(3-Bromoanilino)benzothieno[3,2-d]pyrimidine]

IC50 ([1]; EGF Receptor Tyrosine Kinase Inhibition, Table 1, values printed in μM, read-out: IC50 in EGFR): 1300 nM
Compound: Clc1cccc(Nc2ncnc3c2sc2ncccc23)c1 [Example 20, 4-(3-Chloroanilino)pyrido[3′, 2′:4,5]thieno[3,2-d]pyrimidine]

IC50 [1, 5]: 160 nM
Compound: Nc1nc(Nc2cccc(Br)c2)c2c(n1)[nH]c1ccccc12 [Example 32, 2-Amino-4-(3-bromoanilino)pyrimido[2,3-d]indole]

IC50 [1]: 740 nM
Compound: Brc1cccc(Nc2ncnc3c2oc2ccccc23)c1 [Example 34, 4-(3-Bromoanilino)benzofurano[3,2-d]pyrimidine]

Compound: 4-(3-Bromoanilino)imidazolo[4,5-h]quinazoline hydrochloride [Example 11]
IC50 ([1]; read-out: IC50 in EGFR): 272 nM

Compound: 4-(3-Bromoanilino)triazolo[4,5-g]quinazoline hydrochloride [Example 7]
IC50 [1, 5]: 4.1 nM

IC50 [1, 5]: 21 nM
Compound: C[C@@H](Nc1ncnc2cc3ccccc3cc12)c1ccccc1 [Example 2, 4-([R]-1-Phenylethylamino)benzo[g]quinazoline hydrochloride]

IC50 ([1]; read-out: EGFR IC50): 1.7 nM
IC50 ([1]; read-out: IC50 in EGFR): 1.7 nM
IC50 [2]: ~700 nM
IC50 [3]: 31 nM
Compound: Brc1cccc(Nc2ncnc3cc4nccnc4cc23)c1 [Example 10, 4-(3-Bromoanilino)pyrazino[2,3-g]quinazoline]

IC50 ([1]; EGF Receptor Tyrosine Kinase Inhibition, Table 1, values in pM, read-out: IC50 in EGFR): 0.075 nM
Compound: Brc1cccc(Nc2ncnc3cc4ncoc4cc23)c1 [Example 5]

IC50 [2]: 10 nM
Compound: Cn1cnc2cc3c(Nc4cccc(Br)c4)ncnc3cc21 [Example 8, 4-(3-Bromoanilino)-8,N-methylimidazolo[4,5-g]quinazoline]

IC50 [1, 5]: 264 nM
Compound: c1ccc(Nc2ncnc3[nH]c4ccccc4c23)cc1 [Example 27, 4-Anilinoindolo[2,3-d]pyrimidine]

IC50 [1]: ~0.01 nM
Compound: Cn1cnc2cc3ncnc(Nc4cccc(Br)c4)c3cc21 [Example 9, 4-(3-Bromoanilino)-6,N-methylimidazolo[4,5-g]quinazoline]

IC50 [1]: 0.76 nM
Compound: Brc1cccc(Nc2ncnc3cc4[nH]ccc4cc23)c1 [Example 3, 4-(3-Bromoanilino)pyrrolo[3,2-g]quinazoline]

IC50 [2]: ~1500 nM
Compound: Brc1cccc(Nc2ncnc3c2sc2ncsc23)c1 [Example 19, 4-(3-Bromoanilino)thiazolo[4′,5′; 4,5]thieno[3,2-d]pyrimidine]

IC50 [1, 5]: 538 nM
Compound: C[C@@H](Nc1ncnc2c1sc1ccccc12)c1ccccc1 [Example 14, 4-([R]-1-Phenylethylamino)benzothieno[3,2-d]pyrimidine]

IC50 [1]: < 0.1 nM
IC50 ([1]; read-out: EGFR IC50 nM): < 0.1 nM
IC50 [3]: 17 nM
Compound: Brc1cccc(Nc2ncnc3cc4ccccc4cc23)c1 [Example 1, 4-(3-bromoanilino)benzo[q]quinazoline hydrochloride]

IC50 [2]: 23 nM
Compound: Nc1ccc2sc3c(Nc4cccc(Br)c4)ncnc3c2c1 [Example 17, 8-Amino-4-(3-bromoanilino)benzo[b]thieno[3,2-d]pyrimidine]
IC50 [4]: 2900 nM

EGFR inhibition at fixed concentration ([1]; @ 10 nM): 36% @ 10
Compound: COc1cccc2sc3c(Nc4cccc(Br)c4)ncnc3c12.Cl [Example 18, 4-(3-Bromoanilino)-9-methoxybenzo[b]thieno[3,2-d]pyrimidine hydrochloride.]
